Assay results as given in US11472766B2, “Lipid nanoparticle composition” (Suzhou Abogen Biosciences Co., Ltd., priority 2020, dated 2022).

Experiments:
[1] = Lipid nanoparticle size by dynamic light scattering (Malvern Zetasizer Nano ZS); assay type: physicochemical; settings: LNP: cationic lipid/DSPC/cholesterol/PEG-lipid 50:10:38.5:1.5, hEPO mRNA; Table 3
Experimental: (§1) Briefly, a cationic lipid provided herein, DSPC, cholesterol, and PEG-lipid were solubilized in ethanol at a molar ratio of 50:10:38.5:1.5, and mRNA were diluted in 10 to 50 mM citrate buffer, pH=4. The LNPs were prepared at a total lipid to mRNA weight ratio of approximately 10:1 to 30:1 by mixing the ethanolic lipid solution with the aqueous mRNA solution at a volume ratio of 1:3 using a microfluidic apparatus, total flow rate ranging from 9-30 mL/min. Ethanol were thereby removed and replaced by DPBS using dialysis. Finally, the lipid nanoparticles were filtered through a 0.2 μm sterile filter.
(§2) Lipid nanoparticle size were determined by dynamic light scattering using a Malvern Zetasizer Nano ZS (Malvern UK) using a 173° backscatter detection mode. The encapsulation efficiency of lipid nanoparticles were determined using a Quant-it Ribogreen RNA quantification assay kit (Thermo Fisher Scientific, UK) according to the manufacturer's instructions.

[2] = Encapsulation efficiency of lipid nanoparticles (Quant-it Ribogreen RNA quantification assay); assay type: physicochemical; settings: LNP encapsulating hEPO mRNA; Table 3
Experimental: as §1, §2

[3] = test system: human erythropoietin (hEPO) mRNA; assay: Animal study: hEPO expression after tail vein injection of LNPs encapsulating hEPO mRNA (serum ELISA); assay type: in vivo; settings: hEPO level, female ICR mice, 0.5 mg/kg, 6 hours post administration, class symbols, Table 3
Experimental: Lipid nanoparticles comprising compounds 1-10 encapsulating human erythropoietin (hEPO) mRNA were systemically administered to 6-8 week old female ICR mice (Xipuer-Bikai, Shanghai) at 0.5 mg/kg dose by tail vein injection and mice blood were sampled at specific time points (e.g., 6 hours) post administration. In addition to the aforementioned tested groups, lipid nanoparticles comprising dilinoleylmethyl-4-dimethylaminobutyrate (DLin-MC3-DMA, usually abbreviated to MC3) encapsulating hEPO mRNA were similarly administered at the same dose to age and gender comparative groups of mice as a positive control.
Mice were euthanized by CO2 overdoses after the last sampling time point. Serum were separated from total blood by centrifugation at 5000 g for 10 minutes at 4° C., snap-frozen and stored at −80° C. for analysis. ELSA assay were carried out using a commercial kit (DEP00, R&D systems) according to manufacturer's instructions.
Characteristics of tested lipid nanoparticles, including hEPO expression levels (μg/ml) measured from the tested group are listed the tables below and plotted in FIG. 2.

[4] = Apparent pKa of LNP formulations (TNS fluorescence assay); settings: LNP cationic lipid/DSPC/cholesterol/DMG-PEG 50/10/38.5/1.5 mol %, Table 3
Experimental: The apparent pKa of each formulation was determined using an assay based on fluorescence of 2-(p-toluidino)-6-napthalene sulfonic acid (TNS). LNP formulations comprising of cationic lipid/DSPC/cholesterol/DMG-PEG (50/10/38.5/1.5 mol %) in PBS were prepared as described above. TNS was prepared as a 300 uM stock solution in distilled water. LNP formulations were diluted to 0.1 mg/ml total lipid in 3 mL of buffered solutions containing 50 mM sodium citrate, 50 mM sodium phosphate, 50 mM sodium borate, and 30 mM sodium chloride where the pH ranged from 3 to 9. An aliquot of the TNS solution was added to give a final concentration of 0.1 mg/ml and following vortex mixing fluorescence intensity was measured at room temperature in a Molecular Devices Spectramax iD3 spectrometer using excitation and mission wavelengths of 325 nm and 435 nm. A sigmoidal best fit analysis was applied to the fluorescence data and the pKa value was measured as the pH giving rise to half-maximal fluorescent intensity.

| polydispersity [1] | size nm [1] | Encapsulation Efficiency [2] | Apparant Pka [4] | SMILES | Expression at 6 h (μg/ml) [3] |
| --- | --- | --- | --- | --- | --- |
| 0.103 | 76.79 nm | 98.1% | 6.252 | CCCCCCCCC(CCCCCC)CC(=O)OCCCCCN(CCCCCOC(=O)CC(CCCCCC)CCCCCCCC)CCN(CCO)C1CCC1 (stereo not drawn) [Compound 20] | A (≥2) |
| 0.077 | 75.26 nm | 100.6% | 7.652 | CCCCCCCCC(CCCCCC)COC(=O)CCCCCN(CCCCCC(=O)OCC(CCCCCC)CCCCCCCC)CCN(CCO)C1CCC(O)CC1 (stereo not drawn) [Compound 21] | D (<0.1) |
| 0.081 | 71.2 nm | 98.3% | 6.884 | CCCCCCCCC(CCCCCC)COC(=O)CCCCCN(CCCCCC(=O)OCC(CCCCCC)CCCCCCCC)CCN(CCO)C1CC(O)C1 (stereo not drawn) [Compound 22] | D (<0.1) |
| 0.077 | 64.96 nm | 95.4% | 6.087 | CCCCCCCCC(CCCCCC)CC(=O)COCCCCN(CCCCCOC(=O)CC(CCCCCC)CCCCCCCC)CCN(CCO)C1CC1 (stereo not drawn) [Compound 24] | C (≥0.1 and <1) |
| 0.032 | 74.3 nm | 96.7% | 6.334 | CCCCCCCCC(CCCCCC)CC(=O)COCCCCN(CCCCCOC(=O)CC(CCCCCC)CCCCCCCC)CCN(CCO)C1CCCC1 (stereo not drawn) [Compound 25] | A (≥2) |
| 0.133 | 58.44 nm | 96.7% | 6.153 | CCCCCCCCC(CCCCCC)CC(=O)COCCCCN(CCCCCOC(=O)CC(CCCCCC)CCCCCCCC)CCN(CCO)C1CCCCCC1 (stereo not drawn) [Compound 27] | C (≥0.1 and <1) |
| 0.002 | 79.82 nm | 96.5% | 6.529 | CCCCCCCCC(CCCCCC)COC(=O)CCCCCN(CCCCCC(=O)OCC(CCCCCC)CCCCCCCC)CCN(CCCO)C1CCC1 (stereo not drawn) [Compound 28] | A (≥2) |
| 0.078 | 85.17 nm | 97.2% | 6.477 | CCCCCCCCC(CCCCCC)COC(=O)CCCCCN(CCCCCC(=O)OCC(CCCCCC)CCCCCCCC)CCN(CCCCO)C1CCC1 (stereo not drawn) [Compound 29] | A (≥2) |
| 0.076 | 71.64 nm | 92.4% | 5.822 | CCCCCCCCC(CCCCCC)COC(=O)CCCCCN(CCCCCC(=O)OCC(CCCCCC)CCCCCCCC)CCN(CCCCCCCCO)C1CCC1 (stereo not drawn) [Compound 31] | C (≥0.1 and <1) |
| 0.039 | 77.76 nm | 94.3% | 5.941 | CCCCCCCCC(CCCCCC)COC(=O)CCCCCN(CCCCCC(=O)OCC(CCCCCC)CCCCCCCC)CCN(CC(C)O)C1CCC1 (stereo not drawn) [Compound 32] | C (≥0.1 and <1) |
| 0.091 | 62.2 nm | 94.5% | 5.315 | CCCCCCCCC(CCCCCC)COC(=O)CCCCCN(CCCCCC(=O)OCC(CCCCCC)CCCCCCCC)CCN(CC(O)CCCC)C1CCC1 (stereo not drawn) [Compound 33] | D (<0.1) |
| 0.095 | 63.32 nm | 96.1% | 5.29 | CCCCCCCCC(O)CN(CCN(CCCCCC(=O)OCC(CCCCCC)CCCCCCCC)CCCCCC(=O)OCC(CCCCCC)CCCCCCCC)C1CCC1 (stereo not drawn) [Compound 34] | D (<0.1) |
| 0.086 | 60.58 nm | 94.8% | 5.945 | CCCCCCCCC(CCCCCC)COC(=O)CCCCCN(CCCCCC(=O)OCC(CCCCCC)CCCCCCCC)CCN(CCO)C1CCC1 (stereo not drawn) [Compound 35] | C (≥0.1 and <1) |
| 0.065 | 70.36 nm | 98.3% | 5.907 | CCCCCCCCC(CCCCCC)COC(=O)CCCCN(CCCCC(=O)OCC(CCCCCC)CCCCCCCC)CCN(CCO)C1CCC1 (stereo not drawn) [Compound 36] | A (≥2) |
| 0.034 | 84.26 nm | 97.0% | 6.205 | CCCCCCCCC(CCCCCC)COC(=O)CCCCCCN(CCCCCCC(=O)OCC(CCCCCC)CCCCCCCC)CCN(CCO)C1CCC1 (stereo not drawn) [Compound 37] | A (≥2) |
| 0.167 | 65.94 nm | 98.7% | 6.172 | CCCCCCCCC(CCCCCC)C(C)OC(=O)CCCCCN(CCCCCC(=O)OC(C)C(CCCCCC)CCCCCCCC)CCN(CCO)C1CCC1 (stereo not drawn) [Compound 38] | C (≥0.1 and <1) |
| 0.043 | 64.4 nm | 98.8% | 6.061 | CCCCCCCCC(CCCCCC)C(CC)OC(=O)CCCCCN(CCCCCC(=O)OC(CC)C(CCCCCC)CCCCCCCC)CCN(CCO)C1CCC1 (stereo not drawn) [Compound 39] | C (≥0.1 and <1) |
| 0.054 | 64.04 nm | 97.5% | 5.93 | CCCCCCCCCCC(CCCCCC)COC(=O)CCCN(CCCC(=O)OCC(CCCCCC)CCCCCCCCCC)CCN(CCO)C1CCC1 (stereo not drawn) [Compound 41] | C (≥0.1 and <1) |
| 0.065 | 65.63 nm | 96.4% | 6.196 | CCCCCCCCCCC(CCCCCC)COC(=O)CCCCN(CCCCC(=O)OCC(CCCCCC)CCCCCCCCCC)CCN(CCO)C1CCC1 (stereo not drawn) [Compound 42] | C (≥0.1 and <1) |
| 0.063 | 83.85 nm | 97.5% | 6.049 | CCCCCCCCC(CCCCCC)C(=O)OCCCCCCCCCN(CCCCCCCCCOC(=O)C(CCCCCC)CCCCCCCC)CCN(CCO)C1CCC1 (stereo not drawn) [Compound 44] | B (≥1 and <2) |
| 0.073 | 110.4 nm | 93.8% | 6.307 | CCCCCC/C=C\COC(=O)CCCCCN(CCCC(=O)OC(CCCCCCC)CCCCCCC)CCN(CCO)C1CCC1 [Compound 46] | C (≥0.1 and <1) |
| 0.065 | 72.52 nm | 91.80% | 6.347 | CCCCCCC(CCCCCC)COC(=O)CCCCCN(CCCCCC(=O)OCC(CCCCCC)CCCCCC)CCN(CCO)C1CCC1 [Compound 48] | A (≥2) |
| 0.075 | 65.13 nm | 94.1% | 6.249 | CCCCCCCC(CCCCCCC)COC(=O)CCCCCN(CCCCCC(=O)OCC(CCCCCCC)CCCCCCC)CCN(CCO)C1CCC1 [Compound 49] | A (≥2) |
| 0.085 | 67.68 nm | 94.90% | 6.143 | CCCCCCCCC(CCCCCCCC)COC(=O)CCCCCN(CCCCCC(=O)OCC(CCCCCCCC)CCCCCCCC)CCN(CCO)C1CCC1 [Compound 50] | A (≥2) |
| 0.073 | 59.73 nm | 94.10% | 6.093 | CCCCCCCCCC(CCCCCCCCC)COC(=O)CCCCCN(CCCCCC(=O)OCC(CCCCCCCCC)CCCCCCCCC)CCN(CCO)C1CCC1 [Compound 51] | A (≥2) |
| 0.07 | 85.46 nm | 96.4% | 6.466 | CCCCCCCCC(CCCCCC)COC(=O)CCCCCN(CCCCCC(=O)OCC(CCCCCC)CCCCCCCC)CCN(CCC)C1CCC(O)CC1 (stereo not drawn) [Compound 56] | A (≥2) |
| 0.063 | 93.52 nm | 96.1% | 6.645 | CCCCCCCCC(CCCCCC)COC(=O)CCCCCN(CCCCCC(=O)OCC(CCCCCC)CCCCCCCC)CCN(C(C)C)C1CCC(O)CC1 (stereo not drawn) [Compound 57] | A (≥2) |
